Where two headings read alike, the source gives them in different places.
Experiments:
[1] = system: patients with active severe rheumatoid arthritis; conditions: for Serum C-reactive protein: normal reference range <10 mg/l; for Rheumatoid factor: normal reference range <14 IU/ml

## CS(=O)(=O)O.Cc1ccc(NC(=O)c2ccc(CN3CCN(C)CC3)cc2)cc1Nc1nccc(-c2cccnc2)n1 [SALT I]
Patient with severe RA; January 2003, 400 mg daily, prior RA medication discontinued
  RA status: still in remission
Patient with severe RA; Jun. 14, 2001
  occasional macroscopic hematuria (RA-associated glomerulonephritis): had ceased
Patient with severe RA; Jun. 14, 2001, 400 mg/day, prednisone reduced to 5 mg o.d.
  patient-reported RA condition: further subjective improvement of their RA
Patient with severe RA; September 2001
  RA status: still in remission
Patient with severe RA; after 2 and 5 months of treatment, with prednisone 5 mg/day
  RA condition: further major improvements
Patient with severe RA; after several days, with prednisone 5 mg/day, 600 mg then 400 mg/day orally
  patient-reported general condition: improved joint motility and decrease of wrist swelling
Patient with severe RA; control visit April 17, 600 mg/day for nine days, pause, then 400 mg/day from April 11
  patient-reported RA condition: improved joint motility and decreased swelling particularly in the wrists
[1]; 2 patients who completed the 12-week study
  anti-rheumatic effect, duration: sustained during the study period
[1]; 3 patients, 200 to 400 mg/day, up to 12 weeks
  outcome measures during SALT I therapy (overall): All outcome measures improved
[1]; Patient 1, week 8, baseline 1.75
  HAQ: 1.5
[1]; Patient 1, week 8, baseline 10
  Serum C-reactive protein: 11 mg/L
[1]; Patient 1, week 8, baseline 38
  Erythrocyte sedimentation rate: 23 mm/h
[1]; Patient 1, week 8, baseline 77
  Patient-assessed disease activity (VAS): 39 mm
[1]; Patient 1, week 8, baseline 79
  Pain (VAS): 42 mm
[1]; Patient 1, week 8, baseline 197
  Rheumatoid factor: 65 IU/ml
[1]; Patient 2, week 12, baseline 1.75
  HAQ: 0.75
[1]; Patient 2, week 12, baseline 36
  Serum C-reactive protein: 12 mg/L
[1]; Patient 2, week 12, baseline 77
  Pain (VAS): 26 mm
[1]; Patient 2, week 12, baseline 96
  Patient-assessed disease activity (VAS): 35 mm
[1]; Patient 2, week 12, baseline 501
  Rheumatoid factor: 270 IU/ml
[1]; Patient 2, week 12, no baseline value
  Erythrocyte sedimentation rate: 13 mm/h
[1]; Patient 3, week 12, baseline 1.5
  HAQ: 1.1
[1]; Patient 3, week 12, baseline 28
  Erythrocyte sedimentation rate: 12 mm/h
[1]; Patient 3, week 12, baseline 37
  Pain (VAS): 22 mm
[1]; Patient 3, week 12, baseline 42
  Serum C-reactive protein: 10 mg/L
[1]; Patient 3, week 12, baseline 69
  Patient-assessed disease activity (VAS): 23 mm
[1]; Patient no. 1, during the study, from 45 min
  Morning stiffness: none
[1]; Patient no. 3, 24 weeks
  blood erythrocyte sedimentation rate: 17 mm/h
  duration of the morning stiffness: 30 min
  serum CRP level: 9 mg/L
  serum rheumatoid factor level: 139 IU/ml
[1]; Patient no. 3, 24 weeks, 400 mg o.d.
  number of swollen joints: 15
[1]; Patient no. 3, during the study (12 weeks), from 180 min
  Morning stiffness: 75 min
[1]; all 3 patients
  response of rheumatoid arthritis to treatment: responded favorably
[1]; first week of treatment, subsided below baseline during second study week
  joint pain reported by all patients: increased joint pain
